Measured values as given in the NIST ThermoML archive (doi:10.1016/j.jct.2005.05.015).

Conditions: Liquid, Twin ebulliometer

CCCCC [pentane]
Conditions | vapor or sublimation pressure [kPa]
309.32 K | 101.73
313.85 K | 118.39
320.2 K | 145.3
325.22 K | 169.71
330.84 K | 200.67
335.22 K | 227.66
339.51 K | 256.78
343.32 K | 284.81
346.78 K | 312.35
349.92 K | 338.98
353.48 K | 371.25
356.79 K | 403.22
360.01 K | 436.34
363.24 K | 471.57
366.37 K | 507.7
369.92 K | 551.11
377.19 K | 648.59
384.19 K | 754.18
392.52 K | 895.85
397.8 K | 995.29
402.59 K | 1092.4
406.87 K | 1185.1
412.57 K | 1317.5
416.13 K | 1405.5
417.87 K | 1450
420.09 K | 1508.6
423.75 K | 1608.9
424.62 K | 1633.2
427.09 K | 1704.4
430.44 K | 1804.8
430.68 K | 1812
433.61 K | 1903.7
437.57 K | 2033.2
440.81 K | 2143.7
443.59 K | 2242.6
446.65 K | 2355.2
449.18 K | 2451.9
451.9 K | 2559.3
451.99 K | 2562.8
454.33 K | 2658.6
455.99 K | 2727.7
